{"source": "patent US9580487B2", "about": "“Method of treating stomach or bowel-related disorders by administering glucagon-like-peptide-2 (GLP-2) analogues” (Zealand Pharma A/S, priority 2005, dated 2017)", "key": {"male C57BL mice [1]": {"test_system": "male C57BL mice", "assay": "Screening for intestinal growth effects (small intestine and colon mass relative to body weight, small intestine-colon sensitivity index)", "type": "in vivo", "conditions": "for Small intestine mass relative to [Gly2]GLP-2 / Preferential growth of small intestine versus colon (small intestine-colon sensitivity): 30 nmol/kg s.c. twice daily, ten days; for Small intestine mass relative to [Gly2]GLP-2: equimolar [Gly2]GLP-2; for Preferential growth of small intestine versus colon (small intestine-colon sensitivity): relative to [Gly2]GLP-2; for colon mass relative to body weight, % [Gly2]GLP-2 / small intestine-colon sensitivity index, (SI/Colon)X/(SI/Colon)[Gly2]GLP-2 %: male C57BL mice, 30 nmol/kg s.c. twice daily for ten days; for small intestine-colon sensitivity index, (SI/Colon)X/(SI/Colon)[Gly2]GLP-2 %: third value column", "experimental": "The ability of the present compounds to stimulate intestinal growth was determined in male C57BL mice. Individual groups (n=6) of mice were given 30 nmol/kg of each compound, s.c, twice daily for ten consecutive days. For comparison purposes other groups of animals were given either an equimolar dose of [Gly2]GLP-2 (SEQ ID NO:54) or vehicle (phosphate buffered saline, pH 7.4) in the same dosing regimen. Twenty-four hours after the last dose of compound had been given the mice were sacrificed and the small intestine (from the pylorus to the cecum) and the colon (intestine distal to cecum) was emptied and weighed. To correct for slight difference in body weight (BW), the organ mass of the small intestine (SI) and colon were expressed relative to BW. The non-selective reference compound [Gly2]GLP-2 (SEQ ID NO:54) has been reported to stimulate gastrointestinal growth in both esophagus, stomach, small intestine and colon and to evaluate differences in growth pattern induced by compounds, the small intestine-colon sensitivity index of compound X was calculated as:\n(SI/Colon)X/(SI/Colon)[Gly2]GLP-2%\nCompounds with a small intestine-colon sensitivity greater than or equal to 1.05 were considered relatively selective for the small intestine (Table 15).\nCompounds with a small intestine-colon sensitivity smaller than or equal to 0.95 were considered relatively selective for the colon (Table 15)."}, "male C57BL mice [2]": {"test_system": "male C57BL mice", "assay": "Dose-response effect on intestinal growth (SI mass, SI-Colon Sensitivity Index, colon and stomach mass)", "type": "in vivo", "conditions": "5-405 nmol/kg s.c. b.i.d. for three days", "experimental": "Values are means±SEM. *: P<0.05 relative to the equimolar dose of [Gly2]GLP-2 (SEQ ID NO:54).\nFIG. 2 is a set of graphs showing full dose-response data of four small intestine selective compounds (compound nos. 1846 (SEQ ID NO:34), 1855 (SEQ ID NO:43), 1848 (SEQ ID NO:36), 1858 (SEQ ID NO:46)) on the Small Intestine (SI)-to-Colon Sensitivity Index mice relative to the non-selective reference compound [Gly2]GLP-2 (SEQ ID NO:54). Compounds were administered by subcutaneous injection b.i.d. for three days in C57BL mice at the following doses: 0 (vehicle), 5, 15, 45, 135, 405 nmol/kg (n=6/dose group). Responses at each dose level were compared with responses obtained at the same dose level in pair-treated mice treated with the non-selective reference compound [Gly2]GLP-2 (SEQ ID NO:54). The SI-Colon Sensitivity Index was calculated as SI-mass relative to colon mass and the Sensitivity Index at each dose level was normalized to the response observed with the non-selective reference compound [Gly2]GLP-2 (SEQ ID NO:54). […] Values are means±SEM. *: P<0.05 relative to the equimolar dose of [Gly2]GLP-2.\nFIG. 4 is a set of graphs showing full dose-response data of three small intestine selective compounds (compound nos. 1857 (SEQ ID NO:45), 1820 (SEQ ID NO:10), and 1849 (SEQ ID NO:37)) on the Small Intestine (SI)-to-Colon Sensitivity Index mice relative to the non-selective reference compound [Gly2]GLP-2 (SEQ ID NO:54). Compounds were administered by subcutaneous injection b.i.d. for three days in C57BL mice at the following doses: 0 (vehicle), 5, 15, 45, 135, 405 nmol/kg (n=6/dose group). Responses at each dose level were compared with responses obtained at the same dose level in pair-treated mice treated with the non-selective reference compound [Gly2]GLP-2 (SEQ ID NO:54). The SI-Colon Sensitivity Index was calculated as SI-mass relative to colon mass and the Sensitivity Index at each dose level was normalized to the response observed with the non-selective reference compound [Gly2]GLP-2 (SEQ ID NO:54). […] Values are means±SEM. *: P<0.05 relative to the equimolar dose of [Gly2]GLP-2 (SEQ ID NO:54).\nCompounds were administered by subcutaneous injection b.i.d. for three days in C57BL mice at the following doses: 0 (vehicle), 5, 15, 45, 135, 405 nmol/kg (n=6/dose group). […] Values are means±SEM. *: P<0.05 relative to the vehicle.\nThe dose-response effect of 1820 (SEQ ID NO:10), 1855 (SEQ ID NO:43), ZP1846 (SEQ ID NO:34), 1858 (SEQ ID NO:46), 1849 (SEQ ID NO:37), 1848 (SEQ ID NO:36), and 1857 (SEQ ID NO:45) on small intestinal mass was determined in male C57BL mice. Individual groups (n=6) of mice were given 5, 15, 45, 135 or 405 nmol/kg of each compound, s.c, twice daily for three consecutive days. For comparison purposes other groups of animals were given either equimolar doses of [Gly2]GLP-2 (SEQ ID NO:54) or vehicle (phosphate buffered saline, pH 7.4) in the same dosing regimen. Twenty-four hours after the last dose of compound had been given the mice were sacrificed and the small intestine (from the pylorus to the cecum emptied and weighed to determine the effect on small intestinal mass."}, "[3]": {"assay": "Chemical stability testing: incubation in HCl, NaOH, H2O2 or NH4HCO3 at 40° C., remaining purity by RP-HPLC", "type": "physicochemical", "conditions": "40° C.; for Purity H2O2 0.5% 3 days / Purity HCl 0.1M 12 days / Purity NH4HCO3 0.1M 6 days: 2 mg/ml, relative to the purity at T=0; for Purity H2O2 0.5% 3 days / Purity HCl 0.1M 12 days: RP-HPLC; for Purity NH4HCO3 0.1M 6 days: pH 8, RP-HPLC; for Stability during acid hydrolysis (in words): 0.1 M HCl, 12 days", "experimental": "The GLP-2 analogues were dissolved in purified water and subsequently diluted in solutions containing HCl, NaOH, H2O2 or NH4HCO3. The solutions were incubated at 40° C. to produce hydrolysis, deamidation and oxidation products. The samples were analyzed by RP-HPLC and the percentage of remaining intact compound was determined as a measure for the relative stability. The major degradation products were tentatively identified by LC-MS.\nThe GLP-2 analogues tested and the reference Gly^2-GLP-2, ZP1559 (SEQ ID NO:54), were dissolved in water and subsequently diluted into solutions containing HCl, NaOH, H2O2 or NH4HCO3. The samples were incubated at 40° C. to generate hydrolysis, deamidation and oxidation products, respectively. The compounds were analysed by RP-HPLC for purity of the original main peak and by LC-MS for confirmation of the identity by mass of the main peak and major degradation products.\nThe GLP-2 analogues were first dissolved in MQW to a concentration of 4 mg/ml and then further diluted in the stress solutions at a 1:1 ratio (e.g. 125 μl plus 125 μl). The final concentrations were 2 mg/ml of the GLP-2 analogues for stress conditions with 0.1 M HCl, 0.01M NaOH, 0.1 M NH4HCO3 and 0.5% H2O2, respectively.\nThe solutions were incubated at 40° C. in the dark and then diluted in Eluent A to a concentration of 0.5 mg/ml (addition of 750 μl) prior to analyses by RP-HPLC and by LC-MS.\nThe RP-HPLC analyses were performed on an Agilent Series 1100 HPLC system under control of the ChemStation (Revision A.08.03 [847]) software from Agilent Technologies, Inc. The raw data and the results of the peak integration were deposited on the ChemStore C/S server by the use of Agilent Technologies Revision B01.03 software.\nThe results are shown in Table 9 as the compound purity measured by RP-HPLC after incubation under stress conditions. This purity is a measure for the remaining intact compound after incubation in stress solutions, relative to the purity measured a T=0."}}, "note": "“Also recorded” adds a separate entry of the source. No end group written: not given here.", "data": [{"substance": "[Gly2, Glu3, Ser8, Leu10, Ala11,16,24,28]hGLP-2(1-33)-(Lys)6-NH2 (HGEGSFSSELATILDALAARDFIAWLIATKITDKKKKKK-NH2) [Compound 1849]", "values": [{"measurement": "Small intestine mass relative to [Gly2]GLP-2", "setting": "male C57BL mice [1]", "result": "increased small intestine mass relative to [Gly2]GLP-2"}, {"measurement": "Preferential growth of small intestine versus colon (small intestine-colon sensitivity)", "setting": "male C57BL mice [1]", "result": "supplementary increase in the weight of the small intestine without significant effecting the weight of the colon; also recorded: preferentially stimulating epithelial growth in the small intestine"}, {"measurement": "colon mass relative to body weight, % [Gly2]GLP-2", "setting": "male C57BL mice [1]", "result": "95 % [Gly2]GLP-2"}, {"measurement": "small intestine-colon sensitivity index, (SI/Colon)X/(SI/Colon)[Gly2]GLP-2 %", "setting": "male C57BL mice [1]", "result": "115 % [Gly2]GLP-2"}, {"measurement": "SI-Colon Sensitivity Index (SI mass relative to colon mass) relative to [Gly2]GLP-2", "setting": "male C57BL mice [2]", "result": "increased maximal small intestinal sensitivity relative to [Gly2]GLP-2; also recorded: increased selectivity for causing growth of the small intestine relative to the colon"}, {"measurement": "Small intestinal mass (SI-BW ratio), maximal response relative to [Gly2]GLP-2", "setting": "male C57BL mice [2]", "result": "maximal responses that were significantly greater than [Gly2]GLP-2"}, {"measurement": "Purity H2O2 0.5% 3 days", "setting": "[3]", "result": 78, "unit": "%"}, {"measurement": "Purity HCl 0.1M 12 days", "setting": "[3]", "result": 64, "unit": "%"}, {"measurement": "Purity NH4HCO3 0.1M 6 days", "setting": "[3]", "result": 86, "unit": "%"}]}, {"substance": "[Gly2, Glu3, Ser8, Leu10, Ala11,16,24,28]hGLP-2(1-33)-NH2 (HGEGSFSSELATILDALAARDFIAWLIATKITD-NH2) [Compound 1858]", "values": [{"measurement": "Small intestine mass relative to [Gly2]GLP-2", "setting": "male C57BL mice [1]", "result": "increased small intestine mass relative to [Gly2]GLP-2"}, {"measurement": "Preferential growth of small intestine versus colon (small intestine-colon sensitivity)", "setting": "male C57BL mice [1]", "result": "supplementary increase in the weight of the small intestine without significant effecting the weight of the colon; also recorded: preferentially stimulating epithelial growth in the small intestine"}, {"measurement": "colon mass relative to body weight, % [Gly2]GLP-2", "setting": "male C57BL mice [1]", "result": "96 % [Gly2]GLP-2"}, {"measurement": "small intestine-colon sensitivity index, (SI/Colon)X/(SI/Colon)[Gly2]GLP-2 %", "setting": "male C57BL mice [1]", "result": "108 % [Gly2]GLP-2"}, {"measurement": "Small intestinal mass (SI-BW ratio), maximal response relative to [Gly2]GLP-2", "setting": "male C57BL mice [2]", "result": "maximal responses that were significant greater than [Gly2]GLP-2"}, {"measurement": "Stability during acid hydrolysis (in words)", "setting": "[3]", "result": "tendency of slightly higher stability"}, {"measurement": "Purity H2O2 0.5% 3 days", "setting": "[3]", "result": 60, "unit": "%"}, {"measurement": "Purity HCl 0.1M 12 days", "setting": "[3]", "result": 88, "unit": "%"}, {"measurement": "Purity NH4HCO3 0.1M 6 days", "setting": "[3]", "result": 91, "unit": "%"}]}, {"substance": "[Gly2, Thr7, Ser8, Leu10, Ala11,24]hGLP-2(1-30)-K6-NH2 [Compound 1820]", "values": [{"measurement": "Small intestine mass relative to [Gly2]GLP-2", "setting": "male C57BL mice [1]", "result": "increased small intestine mass relative to [Gly2]GLP-2"}, {"measurement": "Preferential growth of small intestine versus colon (small intestine-colon sensitivity)", "setting": "male C57BL mice [1]", "result": "supplementary increase in the weight of the small intestine without significant effecting the weight of the colon; also recorded: preferentially stimulating epithelial growth in the small intestine"}, {"measurement": "SI-Colon Sensitivity Index (SI mass relative to colon mass) relative to [Gly2]GLP-2", "setting": "male C57BL mice [2]", "result": "increased maximal small intestinal sensitivity relative to [Gly2]GLP-2"}, {"measurement": "Small intestinal mass (SI-BW ratio), maximal response relative to [Gly2]GLP-2", "setting": "male C57BL mice [2]", "result": "maximal responses that were significantly greater than [Gly2]GLP-2"}, {"measurement": "Stability during acid hydrolysis (in words)", "setting": "[3]", "result": "less stable than the remaining six candidates due to acid hydrolysis"}, {"measurement": "Purity H2O2 0.5% 3 days", "setting": "[3]", "result": 62, "unit": "%"}, {"measurement": "Purity HCl 0.1M 12 days", "setting": "[3]", "result": 45, "unit": "%"}, {"measurement": "Purity NH4HCO3 0.1M 6 days", "setting": "[3]", "result": 85, "unit": "%"}]}]}
